Read-outs that look alike come from different tables or passages of the source. Where a SMILES comes first, the peptide text is derived from it. Bridges are numbered along the chain shown (N, C = ends). [ ]: non-standard residue; d: D form. The star is where a group is joined. NHBu = CCCCN*

In data set [1] the test system is neutrophil influx in thioglycolate-induced peritonitis. The data set is described as follows: Inhibition of neutrophil influx in a rat model of thioglycolate-induced peritonitis. The class given is in vivo. As for the experimental part:
CD-1 rats (175-200 g) were injected i.p. with 10 ml thioglycollate medium (BBL #21195/21196 lot#H1KBGP). At -5 minutes, 1.5 hours, and 3.5 hours post thioglycollate injection 5 rats were injected with D-arginyl-D-lysyl-cyclo(D-cysteinyl-glycyl-phenylalanyl-D-cysteinyl)-D-tryptophyl-D-threonyl-D-tryptophyl-D-valineamide (Preferred peptide (19)) (0.75 mls at -5, 0.25 mls at 1.5 and 0.25 mls at 3.5). 5 rats were injected with vehicle at the same time points (0.75 mls at -5, 0.50 mls at 1.5, and 0.25 mls at 3.5). 5 rats received thiogycollate only and served as controls. At 4 hours post thioglycollate injection all animals were sacrificed by CO2 asphyxiation. Neutrophils were harvested by flushing the peritoneal cavity with 50 mls of Hanks balanced salt solution w/o Ca and Mg (JHR Biosciences 55-02178P Lot# IL3697) containing 0.3% ultrapure EDTA (JT Baker 4040-01 lot# D42704). White cells were then counted using the Danam Vet 8 cell counter.

A further data set deals with T1, P-selectin (Homo sapiens, UniProt P16109).
T1 construct: P-selectin is isolated from human platelet lysates; from tissue; host or cells: human platelets (outdated platelet packs from a blood bank)
T1 sequence (P16109 42-830): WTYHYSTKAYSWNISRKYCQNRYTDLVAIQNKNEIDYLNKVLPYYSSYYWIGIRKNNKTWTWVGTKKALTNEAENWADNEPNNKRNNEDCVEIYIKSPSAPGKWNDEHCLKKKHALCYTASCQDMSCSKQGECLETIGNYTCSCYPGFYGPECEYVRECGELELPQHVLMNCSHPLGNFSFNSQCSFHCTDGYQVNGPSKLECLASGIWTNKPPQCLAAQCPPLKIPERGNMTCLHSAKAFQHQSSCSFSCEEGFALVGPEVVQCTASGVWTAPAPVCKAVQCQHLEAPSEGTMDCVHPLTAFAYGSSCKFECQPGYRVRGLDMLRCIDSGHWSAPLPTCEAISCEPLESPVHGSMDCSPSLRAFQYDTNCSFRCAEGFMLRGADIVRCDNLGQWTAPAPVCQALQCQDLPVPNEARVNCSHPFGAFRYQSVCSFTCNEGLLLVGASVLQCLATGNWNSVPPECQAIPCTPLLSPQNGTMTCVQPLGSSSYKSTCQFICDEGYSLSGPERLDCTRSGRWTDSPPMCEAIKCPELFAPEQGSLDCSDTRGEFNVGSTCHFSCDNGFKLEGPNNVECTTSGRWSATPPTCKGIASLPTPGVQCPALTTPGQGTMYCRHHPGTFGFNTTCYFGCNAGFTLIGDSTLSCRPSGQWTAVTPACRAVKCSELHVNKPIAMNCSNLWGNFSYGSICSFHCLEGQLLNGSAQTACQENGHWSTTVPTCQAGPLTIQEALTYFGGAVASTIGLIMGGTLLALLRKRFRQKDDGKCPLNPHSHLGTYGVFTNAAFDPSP
Description: Inhibition of human neutrophil adhesion to purified P-selectin immobilized on plastic wells. Format: cell-based. Conditions: inhibiting the binding of human neutrophils to P-selectin. In outline:
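Isolated human neutrophils (2×10^5 per well) in HBSS with Ca2+/Mg2+ and HSA added to wells coated overnight at 4° C with platelet-derived P-selectin (5 micrograms/mL), HSA-blocked; 20 min at 22° C. Nonadherent cells removed by inverted centrifugation at 150 g; adherent cells quantified by myeloperoxidase activity.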

The conditions of data set [2]: disulfide bond, water.

Usually IC50 stands for the point on the concentration scale where inhibition reaches its midpoint. Lower therefore signals inhibition by little substance. As to `CC(C)[C@@H](NC(=O)[C@@H](Cc1c[nH]c2ccccc12)NC(=O)[C@H](NC(=O)[C@@H](Cc1c[nH]c2ccccc12)NC(=O)[C@H]1CSSC[C@@H](NC(=O)[C@@H](CCCCN)NC(=O)[C@H](N)CCCNC(=N)N)C(=O)NCC(=O)N[C@@H](Cc2ccccc2)C(=O)N1)[C@H](C)O)C(N)=O` [(19)] (H-[dR][dK][dC]GF[dC][dW][dT][dW][dV]-NH2; disulfide 3-6), the “decrease in neutrophil influx in response to thioglycolate stimulation” value in data set [1] (CD-1 rats, thioglycollate i.p., peptide injected at -5 minutes, 1.5 hours and 3.5 hours, peritoneal cells counted at 4 hours) was 67%. At P-selectin, the IC50 is 6 µM.

With `CC[C@@H](C)[C@H]1NC(=O)[C@H](NC(=O)[C@@H](CCCCN)NC(=O)[C@H](N)CCCNC(=N)N)CSSC[C@H](C(=O)N[C@H](Cc2c[nH]c3ccccc23)C(=O)N[C@@H](C(=O)N[C@H](Cc2c[nH]c3ccccc23)C(=O)N[C@@H](C(N)=O)C(C)C)[C@H](C)O)NC(=O)[C@H]([C@@H](C)CC)NC1=O` [(92)] (H-[dR][dK][dC][dI]I[dC][dW][dT][dW][dV]-NH2; disulfide 3-6), the IC50 at P-selectin amounted to 2.4 µM. The molecule further had a ring closure, yield of all isomers in data set [2] (from CC[C@@H](C)[C@@H](NC(=O)[C@@H](CS)NC(=O)[C@@H](CCCCN)NC(=O)[C@H](N)CCCNC(=N)N)C(=O)N[C@H](C(=O)N[C@H](CS)C(=O)N[C@H](Cc1c[nH]c2ccccc12)C(=O)N[C@@H](C(=O)N[C@H](Cc1c[nH]c2ccccc12)C(=O)N[C@@H](C(N)=O)C(C)C)[C@H](C)O)[C@@H](C)CC, DMSO, 0.0765 mM, 24.0 h) of 17.5%.

For the molecule `CC[C@@H](C)[C@H]1NC(=O)[C@H](NC(=O)[C@@H](CCCCN)NC(=O)[C@H](N)CCCNC(=N)N)CSSC[C@H](C(=O)N[C@H](Cc2c[nH]c3ccccc23)C(=O)N[C@@H](C(=O)N[C@H](Cc2c[nH]c3ccccc23)C(=O)N[C@@H](C(N)=O)C(C)C)[C@H](C)O)NC(=O)[C@H](Cc2ccccc2)NC1=O` [(93)] (H-[dR][dK][dC][dI]F[dC][dW][dT][dW][dV]-NH2; disulfide 3-6), the IC50 at P-selectin turned out to be 67.5 µM. Besides, the ring closure, yield of all isomers in data set [2] (from CC[C@@H](C)[C@@H](NC(=O)[C@@H](CS)NC(=O)[C@@H](CCCCN)NC(=O)[C@H](N)CCCNC(=N)N)C(=O)N[C@@H](Cc1ccccc1)C(=O)N[C@H](CS)C(=O)N[C@H](Cc1c[nH]c2ccccc12)C(=O)N[C@@H](C(=O)N[C@H](Cc1c[nH]c2ccccc12)C(=O)N[C@@H](C(N)=O)C(C)C)[C@H](C)O, DMSO, 0.671 mM, 16.0 h) came out at 22.3%.

The molecule `CC(C)[C@@H](NC(=O)[C@@H](Cc1c[nH]c2ccccc12)NC(=O)[C@H](NC(=O)[C@@H](Cc1c[nH]c2ccccc12)NC(=O)[C@H]1CSSC[C@@H](NC(=O)[C@@H](CCCCN)NC(=O)[C@H](N)CCCNC(=N)N)C(=O)N[C@@H](Cc2c[nH]cn2)C(=O)N[C@@H](Cc2ccccc2)C(=O)N1)[C@H](C)O)C(N)=O` [(94)] (H-[dR][dK][dC]HF[dC][dW][dT][dW][dV]-NH2; disulfide 3-6) returned an IC50 on P-selectin of 2.2 µM. In addition, the ring closure, yield of all isomers in data set [2] (from CC(C)[C@@H](NC(=O)[C@@H](Cc1c[nH]c2ccccc12)NC(=O)[C@H](NC(=O)[C@@H](Cc1c[nH]c2ccccc12)NC(=O)[C@@H](CS)NC(=O)[C@H](Cc1ccccc1)NC(=O)[C@H](Cc1c[nH]cn1)NC(=O)[C@@H](CS)NC(=O)[C@@H](CCCCN)NC(=O)[C@H](N)CCCNC(=N)N)[C@H](C)O)C(N)=O, DMSO, 0.714 mM) worked out at 10.7%.

For `CCCCNC(=O)[C@H](CCC(N)=O)NC(=O)[C@@H](Cc1c[nH]c2ccccc12)NC(=O)[C@H](NC(=O)[C@@H](Cc1c[nH]c2ccccc12)NC(=O)[C@H]1CSSC[C@@H](NC(=O)[C@@H](CCCCN)NC(=O)[C@H](N)CCCNC(=N)N)C(=O)NCC(=O)N[C@@H](Cc2ccccc2)C(=O)N1)[C@H](C)O` [(102)] (H-[dR][dK][dC]GF[dC][dW][dT][dW]Q-NHBu; disulfide 3-6), at P-selectin, the IC50 amounted to 8 µM. Further, the ring closure, yield of all isomers in data set [2] (from CCCCNC(=O)[C@H](CCC(N)=O)NC(=O)[C@@H](Cc1c[nH]c2ccccc12)NC(=O)[C@H](NC(=O)[C@@H](Cc1c[nH]c2ccccc12)NC(=O)[C@@H](CS)NC(=O)[C@H](Cc1ccccc1)NC(=O)CNC(=O)[C@@H](CS)NC(=O)[C@@H](CCCCN)NC(=O)[C@H](N)CCCNC(=N)N)[C@H](C)O, DMSO, 0.681 mM) turned out to be 21.5%.

On P-selectin, `CC(C)[C@@H](NC(=O)[C@@H](Cc1c[nH]c2ccccc12)NC(=O)[C@H](NC(=O)[C@@H](Cc1c[nH]c2ccccc12)NC(=O)[C@H]1CSSC[C@@H](NC(=O)[C@@H](CCCCN)NC(=O)[C@H](N)CCCNC(=N)N)C(=O)NCC(=O)N[C@@H](Cc2ccccc2)C(=O)N1)C(C)C)C(=O)O` [(103)] (H-[dR][dK][dC]GF[dC][dW][dV][dW][dV]-OH; disulfide 3-6) yielded an IC50 of 42.7 µM. The molecule further returned a ring closure, yield of all isomers in data set [2] (from CC(C)[C@@H](NC(=O)[C@@H](Cc1c[nH]c2ccccc12)NC(=O)[C@H](NC(=O)[C@@H](Cc1c[nH]c2ccccc12)NC(=O)[C@@H](CS)NC(=O)[C@H](Cc1ccccc1)NC(=O)CNC(=O)[C@@H](CS)NC(=O)[C@@H](CCCCN)NC(=O)[C@H](N)CCCNC(=N)N)C(C)C)C(=O)O, air, Cu wire, ammonium acetate, 0.605 mM, 22.0 h) of 2.7%.

For the molecule `CC(C)[C@@H](NC(=O)[C@@H](Cc1c[nH]c2ccccc12)NC(=O)[C@H](NC(=O)[C@@H](Cc1c[nH]c2ccccc12)NC(=O)[C@H]1CSSC[C@@H](NC(=O)[C@@H](CCCCN)NC(=O)[C@H](N)CCCNC(=N)N)C(=O)NCC(=O)N[C@@H](Cc2ccccc2)C(=O)N1)[C@H](C)O)C(N)=O` [Preferred peptide (19), D-Arginyl-D-lysyl-cyclo(D-cysteinyl-glycyl-phenylalanyl-D-cysteinyl-)-D-tryptophyl-D-threonyl-D-tryptophyl-D-valine-amide] (H-[dR][dK][dC]GF[dC][dW][dT][dW][dV]-NH2; disulfide 3-6), the “inhibition of neutrophil influx (result in words)” value in data set [1] (rat thioglycolate-induced peritonitis, FIG. III) is “inhibition of neutrophil influx”.

(Values after patent US5753617A, “Peptide inhibitors of cellular adhesion” (Centocor, Inc., priority 1995, dated 1998).)
